Results reported in patent US12660819B2, “Herbicidal derivatives” (SYNGENTA CROP PROTECTION AG, priority 2020, dated 2026).

Assays:
Assay type in all cases: in vivo
[1] = tested on: Abutilon theophrasti (ABUTH); test: Post-emergence Test (glasshouse, percentage damage to the plant); details: post-emergence spray, 1000 g/ha unless otherwise stated, evaluated after 13 days
How it was run: (§1)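 Seeds sown in pots in glasshouse (24/16 °C day/night, 14 h light, 65% humidity), then sprayed with compound at 1000 g/ha unless stated, from acetone/water 50:50 with 0.5% Tween 20. Damage assessed 13 days later on five-point scale (1=0–20% to 5=81–100%).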

[2] = tested on: Amaranthus retoflexus (AMARE); test: as above; details: post-emergence spray, 1000 g/ha unless otherwise stated, evaluated after 13 days
How it was run: as §1

[3] = tested on: Echinochloa crus-galli (ECHCG); test: as above; details: post-emergence spray, 1000 g/ha unless otherwise stated, evaluated after 13 days
How it was run: as §1

[4] = tested on: Ipomoea hederacea (IPOHE); test: as above; details: post-emergence spray, 1000 g/ha unless otherwise stated, evaluated after 13 days
How it was run: (§2)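 Spray treatment of sown glasshouse pots at 1000 g/ha (default rate), vehicle acetone/water 50:50 plus 0.5% Tween 20. Read-out: percentage damage after 13 days, converted to a score where 5 denotes 81-100% and 1 denotes 0-20%.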

[5] = tested on: Setaria faberi (SETFA); test: as above; details: post-emergence spray, 1000 g/ha unless otherwise stated, evaluated after 13 days
How it was run: as §2

[6] = tested on: Zea mays (ZEAMX); test: as above; details: post-emergence spray, 1000 g/ha unless otherwise stated, evaluated after 13 days
How it was run: as §2

[7] = tested on: Amaranthus retoflexus (AMARE); test: Pre-emergence Test (glasshouse, percentage damage to the plant); details: 1000 g/ha unless otherwise stated, five-point scale
[8] = tested on: Setaria faberi (SETFA); test: as above; details: 1000 g/ha unless otherwise stated, five-point scale
[9] = tested on: Echinochloa crus-galli (ECHCG); test: as above; details: 1000 g/ha unless otherwise stated, five-point scale
[10] = tested on: Ipomoea hederacea (IPOHE); test: as above; details: 1000 g/ha unless otherwise stated, five-point scale
[11] = tested on: Abutilon theophrasti (ABUTH); test: as above; details: 1000 g/ha unless otherwise stated, five-point scale
[12] = tested on: Zea mays (ZEAMX); test: as above; details: 1000 g/ha unless otherwise stated, five-point scale

CCn1c(C)c(-c2ccc(F)c(C#N)c2)c(=O)c(C(=O)O)c1-c1ccc(Cl)c(Cl)c1 [Compound 92, 5-(3-cyano-4-fluoro-phenyl)-2-(3,4-dichlorophenyl)-1-ethyl-6-methyl-4-oxo-pyridine-3-carboxylic acid]
Post-emergence Test ABUTH, percentage damage to the plant (five-point scale) [1]: 2 (2=21-40%)
Post-emergence Test AMARE, percentage damage to the plant (five-point scale) [2]: 1 (1=0-20%)
Post-emergence Test ECHCG, percentage damage to the plant (five-point scale) [3]: 1 (1=0-20%)
Post-emergence Test IPOHE, percentage damage to the plant (five-point scale) [4]: 3 (3=41-60%)
Post-emergence Test SETFA, percentage damage to the plant (five-point scale) [5]: 1 (1=0-20%)
Post-emergence Test ZEAMX, percentage damage to the plant (five-point scale) [6]: 1 (1=0-20%)
percentage damage to the plant, AMARE [7]: 1 (1=0-20%)
percentage damage to the plant, SETFA [8]: 1 (1=0-20%)
percentage damage to the plant, ECHCG [9]: 1 (1=0-20%)
percentage damage to the plant, IPOHE [10]: 1 (1=0-20%)
percentage damage to the plant, ABUTH [11]: 1 (1=0-20%)
percentage damage to the plant, ZEAMX [12]: 1 (1=0-20%)

CCn1c(C)c(-c2ccc(F)c(C#N)c2)c(=O)c(C(=O)O)c1-c1ccc(Cl)c(Cl)c1 [Compound 91, 5-(3-cyano-4-fluoro-phenyl)-2-(3,4-dichlorophenyl)-1-ethyl-6-methyl-4-oxo-pyridine-3-carboxylic acid]
Post-emergence Test ABUTH, percentage damage to the plant (five-point scale) [1]: 3 (3=41-60%)
Post-emergence Test AMARE, percentage damage to the plant (five-point scale) [2]: 3 (3=41-60%)
Post-emergence Test ECHCG, percentage damage to the plant (five-point scale) [3]: 4 (4=61-80%)
Post-emergence Test IPOHE, percentage damage to the plant (five-point scale) [4]: 3 (3=41-60%)
Post-emergence Test SETFA, percentage damage to the plant (five-point scale) [5]: 4 (4=61-80%)
Post-emergence Test ZEAMX, percentage damage to the plant (five-point scale) [6]: 2 (2=21-40%)
percentage damage to the plant, AMARE [7]: 2 (2=21-40%)
percentage damage to the plant, SETFA [8]: 4 (4=61-80%)
percentage damage to the plant, ECHCG [9]: 4 (4=61-80%)
percentage damage to the plant, IPOHE [10]: 3 (3=41-60%)
percentage damage to the plant, ABUTH [11]: 2 (2=21-40%)
percentage damage to the plant, ZEAMX [12]: 1 (1=0-20%)

CCn1c(C)c(-c2ccc(OC)c(OC)c2)c(=O)c(C(=O)O)c1-c1ccc(Cl)c(Cl)c1 [Compound 99, 2-(3,4-dichlorophenyl)-5-(3,4-dimethoxyphenyl)-1-ethyl-6-methyl-4-oxo-pyridine-3-carboxylic acid]
Post-emergence Test ABUTH, percentage damage to the plant (five-point scale) [1]: 3 (3=41-60%)
Post-emergence Test AMARE, percentage damage to the plant (five-point scale) [2]: 3 (3=41-60%)
Post-emergence Test ECHCG, percentage damage to the plant (five-point scale) [3]: 4 (4=61-80%)
Post-emergence Test IPOHE, percentage damage to the plant (five-point scale) [4]: 2 (2=21-40%)
Post-emergence Test SETFA, percentage damage to the plant (five-point scale) [5]: 4 (4=61-80%)
Post-emergence Test ZEAMX, percentage damage to the plant (five-point scale) [6]: 2 (2=21-40%)
percentage damage to the plant, AMARE [7]: 2 (2=21-40%)
percentage damage to the plant, SETFA [8]: 4 (4=61-80%)
percentage damage to the plant, ECHCG [9]: 3 (3=41-60%)
percentage damage to the plant, IPOHE [10]: 1 (1=0-20%)
percentage damage to the plant, ABUTH [11]: 2 (2=21-40%)
percentage damage to the plant, ZEAMX [12]: 2 (2=21-40%)

CCn1c(C)c(-c2ccc(C(=O)N(C)C)cc2)c(=O)c(C(=O)O)c1-c1ccc(Cl)c(Cl)c1 [Compound 109, 2-(3,4-dichlorophenyl)-5-[4-(dimethylcarbamoyl)phenyl]-1-ethyl-6-methyl-4-oxo-pyridine-3-carboxylic acid]
Post-emergence Test ABUTH, percentage damage to the plant (five-point scale) [1]: 3 (3=41-60%)
Post-emergence Test AMARE, percentage damage to the plant (five-point scale) [2]: 1 (1=0-20%)
Post-emergence Test ECHCG, percentage damage to the plant (five-point scale) [3]: 2 (2=21-40%)
Post-emergence Test IPOHE, percentage damage to the plant (five-point scale) [4]: 4 (4=61-80%)
Post-emergence Test SETFA, percentage damage to the plant (five-point scale) [5]: 3 (3=41-60%)
Post-emergence Test ZEAMX, percentage damage to the plant (five-point scale) [6]: 1 (1=0-20%)
percentage damage to the plant, AMARE [7]: 1 (1=0-20%)
percentage damage to the plant, SETFA [8]: 4 (4=61-80%)
percentage damage to the plant, ECHCG [9]: 1 (1=0-20%)
percentage damage to the plant, IPOHE [10]: 1 (1=0-20%)
percentage damage to the plant, ABUTH [11]: 1 (1=0-20%)
percentage damage to the plant, ZEAMX [12]: 1 (1=0-20%)

CCn1c(C)c(-c2ccc(C(F)(F)F)c(Cl)c2)c(=O)c(C(=O)O)c1-c1ccc(Cl)c(Cl)c1 [Compound 64, 5-[3-chloro-4-(trifluoromethyl)phenyl]-2-(3,4-dichlorophenyl)-1-ethyl-6-methyl-4-oxo-pyridine-3-carboxylic acid]
Post-emergence Test ABUTH, percentage damage to the plant (five-point scale) [1]: 1 (1=0-20%)
Post-emergence Test AMARE, percentage damage to the plant (five-point scale) [2]: 1 (1=0-20%)
Post-emergence Test ECHCG, percentage damage to the plant (five-point scale) [3]: 1 (1=0-20%)
Post-emergence Test IPOHE, percentage damage to the plant (five-point scale) [4]: 1 (1=0-20%)
Post-emergence Test SETFA, percentage damage to the plant (five-point scale) [5]: 1 (1=0-20%)
Post-emergence Test ZEAMX, percentage damage to the plant (five-point scale) [6]: 1 (1=0-20%)
percentage damage to the plant, AMARE [7]: 2 (2=21-40%)
percentage damage to the plant, SETFA [8]: 1 (1=0-20%)
percentage damage to the plant, ECHCG [9]: 1 (1=0-20%)
percentage damage to the plant, IPOHE [10]: 1 (1=0-20%)
percentage damage to the plant, ABUTH [11]: 1 (1=0-20%)
percentage damage to the plant, ZEAMX [12]: 1 (1=0-20%)

CCOc1cc(C)cc(-c2c(C)n(CC)c(-c3ccc(Cl)c(Cl)c3)c(C(=O)O)c2=O)c1 [Compound 103, 2-(3,4-dichlorophenyl)-5-(3-ethoxy-5-methyl-phenyl)-1-ethyl-6-methyl-4-oxo-pyridine-3-carboxylic acid]
Post-emergence Test ABUTH, percentage damage to the plant (five-point scale) [1]: 2 (2=21-40%)
Post-emergence Test AMARE, percentage damage to the plant (five-point scale) [2]: 1 (1=0-20%)
Post-emergence Test ECHCG, percentage damage to the plant (five-point scale) [3]: 1 (1=0-20%)
Post-emergence Test IPOHE, percentage damage to the plant (five-point scale) [4]: 1 (1=0-20%)
Post-emergence Test SETFA, percentage damage to the plant (five-point scale) [5]: 1 (1=0-20%)
Post-emergence Test ZEAMX, percentage damage to the plant (five-point scale) [6]: 1 (1=0-20%)
percentage damage to the plant, AMARE [7]: 1 (1=0-20%)
percentage damage to the plant, SETFA [8]: 2 (2=21-40%)
percentage damage to the plant, ECHCG [9]: 1 (1=0-20%)
percentage damage to the plant, IPOHE [10]: 1 (1=0-20%)
percentage damage to the plant, ABUTH [11]: 1 (1=0-20%)
percentage damage to the plant, ZEAMX [12]: 1 (1=0-20%)

CCn1c(C)c(-c2ccc(F)c(F)c2)c(=O)c(C(=O)O)c1-c1ccc(Cl)c(Cl)c1 [Compound 104, 2-(3,4-dichlorophenyl)-5-(3,4-difluorophenyl)-1-ethyl-6-methyl-4-oxo-pyridine-3-carboxylic acid]
Post-emergence Test ABUTH, percentage damage to the plant (five-point scale) [1]: 3 (3=41-60%)
Post-emergence Test AMARE, percentage damage to the plant (five-point scale) [2]: 3 (3=41-60%)
Post-emergence Test ECHCG, percentage damage to the plant (five-point scale) [3]: 3 (3=41-60%)
Post-emergence Test IPOHE, percentage damage to the plant (five-point scale) [4]: 1 (1=0-20%)
Post-emergence Test SETFA, percentage damage to the plant (five-point scale) [5]: 4 (4=61-80%)
Post-emergence Test ZEAMX, percentage damage to the plant (five-point scale) [6]: 1 (1=0-20%)
percentage damage to the plant, AMARE [7]: 4 (4=61-80%)
percentage damage to the plant, SETFA [8]: 4 (4=61-80%)
percentage damage to the plant, ECHCG [9]: 2 (2=21-40%)
percentage damage to the plant, IPOHE [10]: 1 (1=0-20%)
percentage damage to the plant, ABUTH [11]: 2 (2=21-40%)
percentage damage to the plant, ZEAMX [12]: 1 (1=0-20%)

CCn1c(C)c(-c2ccc(C(F)F)cc2)c(=O)c(C(=O)O)c1-c1ccc(Cl)c(Cl)c1 [Compound 76, 2-(3,4-dichlorophenyl)-5-[4-(difluoromethyl)phenyl]-1-ethyl-6-methyl-4-oxo-pyridine-3-carboxylic acid]
Post-emergence Test ABUTH, percentage damage to the plant (five-point scale) [1]: 3 (3=41-60%)
Post-emergence Test AMARE, percentage damage to the plant (five-point scale) [2]: 1 (1=0-20%)
Post-emergence Test ECHCG, percentage damage to the plant (five-point scale) [3]: 2 (2=21-40%)
Post-emergence Test IPOHE, percentage damage to the plant (five-point scale) [4]: 2 (2=21-40%)
Post-emergence Test SETFA, percentage damage to the plant (five-point scale) [5]: 3 (3=41-60%)
Post-emergence Test ZEAMX, percentage damage to the plant (five-point scale) [6]: 1 (1=0-20%)
percentage damage to the plant, AMARE [7]: 1 (1=0-20%)
percentage damage to the plant, SETFA [8]: 3 (3=41-60%)
percentage damage to the plant, ECHCG [9]: 1 (1=0-20%)
percentage damage to the plant, IPOHE [10]: 2 (2=21-40%)
percentage damage to the plant, ABUTH [11]: 2 (2=21-40%)
percentage damage to the plant, ZEAMX [12]: 1 (1=0-20%)

CCn1c(C)c(-c2cc(F)cc(F)c2)c(=O)c(C(=O)O)c1-c1ccc(Cl)c(Cl)c1 [Compound 79, 2-(3,4-dichlorophenyl)-5-(3,5-difluorophenyl)-1-ethyl-6-methyl-4-oxo-pyridine-3-carboxylic acid]
Post-emergence Test ABUTH, percentage damage to the plant (five-point scale) [1]: 2 (2=21-40%)
Post-emergence Test AMARE, percentage damage to the plant (five-point scale) [2]: 1 (1=0-20%)
Post-emergence Test ECHCG, percentage damage to the plant (five-point scale) [3]: 1 (1=0-20%)
Post-emergence Test IPOHE, percentage damage to the plant (five-point scale) [4]: 2 (2=21-40%)
Post-emergence Test SETFA, percentage damage to the plant (five-point scale) [5]: 2 (2=21-40%)
Post-emergence Test ZEAMX, percentage damage to the plant (five-point scale) [6]: 1 (1=0-20%)
percentage damage to the plant, AMARE [7]: 3 (3=41-60%)
percentage damage to the plant, SETFA [8]: 5 (5=81-100%)
percentage damage to the plant, ECHCG [9]: 1 (1=0-20%)
percentage damage to the plant, IPOHE [10]: 2 (2=21-40%)
percentage damage to the plant, ABUTH [11]: 3 (3=41-60%)
percentage damage to the plant, ZEAMX [12]: 2 (2=21-40%)
